{
  "source": "patent US20240002397A1",
  "about": "“3-AMINO PYRROLIDINE AND PIPERIDINE MACROCYCLIC OREXIN RECEPTOR AGONISTS” (Merck Sharp & Dohme LLC, priority 2020, published 2024)",
  "data": [
    {"target": "T1, human OX2R (Homo sapiens, UniProt O43614)", "T1 sequence (O43614 1-444)": "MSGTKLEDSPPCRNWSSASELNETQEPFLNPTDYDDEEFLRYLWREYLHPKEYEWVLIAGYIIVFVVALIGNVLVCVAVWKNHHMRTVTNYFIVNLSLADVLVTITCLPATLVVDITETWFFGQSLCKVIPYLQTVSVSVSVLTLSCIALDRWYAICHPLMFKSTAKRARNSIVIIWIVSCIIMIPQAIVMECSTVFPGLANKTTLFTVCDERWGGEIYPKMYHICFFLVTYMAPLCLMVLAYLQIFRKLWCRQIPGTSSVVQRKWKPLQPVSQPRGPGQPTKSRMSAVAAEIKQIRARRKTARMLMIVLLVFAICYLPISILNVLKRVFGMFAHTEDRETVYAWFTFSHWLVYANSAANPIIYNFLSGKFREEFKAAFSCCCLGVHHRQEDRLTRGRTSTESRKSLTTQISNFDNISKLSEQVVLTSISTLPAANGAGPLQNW", "assay": "IPOne (IP-1) orexin receptor agonist assay in CHO cells expressing human OX2R", "conditions": "CHO, hOX2R IP-One; percentage of mean max effect of a reference compound at 1 uM with 100% activity", "units": {"Emax": "%"}, "values": [
      {"molecule": "CN(C)C[C@@H]1C[C@H](NS(C)(=O)=O)[C@@H]2CO[C@H]3CC[C@H](CC3)c3nc(ccc3C(F)(F)F)OCCOC(=O)N12", "note": "[Example 98, N-((2^1R,2^4R,5^2R,5^3S,5^5S)-5^5-((dimethylamino)methyl)-6-oxo-1^3-(trifluoromethyl)-3,7,10-trioxa-1(2,6)-pyridina-5(2,1)-pyrrolidina-2(1,4)-cyclohexanacyclodecaphane-5^3-yl)methanesulfonamide]", "Emax": 100},
      {"molecule": "C[C@@H]1C[C@H](NS(C)(=O)=O)C2COC3CCC(CC3)c3ccc(C(F)(F)F)c(c3)OCCCOC(=O)N21", "note": "(stereo partly drawn) [Example 52, N-((2^1S,2^4S,5^2R,5^3S,5^5R)-5^5-methyl-6-oxo-1^4-(trifluoromethyl)-3,7,11-trioxa-5(2,1)-pyrrolidina-1(1,3)-benzena-2(1,4)-cyclohexanacycloundecaphane-5^3-yl)methanesulfonamide]", "Emax": 98.4},
      {"molecule": "COc1cc2nc(c1)C1CCC(CC1)OCC1[C@@H](NS(C)(=O)=O)C[C@@H](C)N1C(=O)OCCO2", "note": "(stereo partly drawn) [Example 70, N-((2^1S,2^4S,5^2R,5^3S,5^5R)-1^4-methoxy-5^5-methyl-6-oxo-3,7,10-trioxa-1(2,6)-pyridina-5(2,1)-pyrrolidina-2(1,4)-cyclohexanacyclodecaphane-5^3-yl)methanesulfonamide]", "Emax": 102},
      {"molecule": "C[C@@H]1C[C@H](NS(=O)(=O)N(C)C)[C@@H]2COC3CCC(CC3)c3cccc(c3)OCCC=CC(=O)N12", "note": "[Example 9, N′-((2^1S,2^4S,5^2R,5^3S, 5^5R)-5^5-methyl-6-oxo-3,11-dioxa-5(2,1)-pyrrolidina-1(1,3)-benzena-2(1,4)-cyclohexanacycloundecaphan-7-en-5^3-yl)-N,N-dimethyl-sulfamide]", "Emax": 100},
      {"molecule": "C[C@@H]1C[C@H](NS(C)(=O)=O)C2CO[C@H]3CC=C(CC3)c3cc(F)cc(c3)OCCCOC(=O)N21", "note": "(stereo partly drawn) [Example 41]", "Emax": 102},
      {"molecule": "C[C@@H]1C[C@H](NS(C)(=O)=O)C2CO[C@H]3CC=C(CC3)c3cc(F)cc(c3)OCCCCC(=O)N21", "note": "(stereo partly drawn) [Example 43, N-((2^1S,2^4S, 5^2R,5^3S,5^5R)-1^5-fluoro-5^5-methyl-6-oxo-3,11-dioxa-5(2,1)-pyrrolidina-1(1,3)-benzena-2(1,4)-cyclohexana-cyclounde-caphan-2^1-en-5^3-yl)methane-sulfonamide]", "Emax": 102},
      {"molecule": "C[C@@H]1C[C@H](NS(C)(=O)=O)C2COC3CCC(CC3)c3cccc(n3)N(C)CCCOC(=O)N21", "note": "(stereo partly drawn) [Example 91, N-((2^1S,2^4S,5^2R, 5^3S,5^5R)-5^5,^11-dimethyl-6-oxo-3,7-dioxa-11-aza-1(2,6)-pyridina-5(2,1)-pyrrolidina-2(1,4)-cyclohexanacycloundecaphane-5^3-yl)methanesulfonamide]", "Emax": 102},
      {"molecule": "CS(=O)(=O)N[C@H]1C[C@@H](CO)N2C(=O)OCCCOc3cc(C(F)F)cc(n3)C3CCC(CC3)OCC12", "note": "(stereo partly drawn) [Example 97, N-((2^1S,2^4S,5^2R,5^3S,5^5S)-1^4-(difluoromethyl)-5^5-(hydroxymethyl)-6-oxo-3,7,11-trioxa-1(2,6)-pyridina-5(2,1)-pyrrolidina-2(1,4)-cyclohexanacycloundecaphane-5^3-yl)methanesulfonamide]", "Emax": 98.4},
      {"molecule": "C[C@@H]1C[C@H](NS(C)(=O)=O)C2COC3CCC(CC3)c3nc(ccc3OC(F)(F)F)OCCOC(=O)N21", "note": "(stereo partly drawn) [Example 58, N-((2^1S,2^4S,5^2R,5^3S,5^5R)-5^5-methyl-6-oxo-1^3-(trifluoromethoxy)-3,7,10-trioxa-1(2,6)-pyridina-5(2,1)-pyrrolidina-2(1,4)-cyclohexanacyclodecaphane-5^3-yl)methanesulfonamide]", "Emax": 102},
      {"molecule": "C[C@@H]1C[C@H](NS(C)(=O)=O)C2COC3CCC(CC3)c3cc(ccc3OC(F)(F)F)OCCCOC(=O)N21", "note": "(stereo partly drawn) [Example 50, N-((2^1S,2^4S, 5^2R,5^3S,5^5R)-5^5-methyl-6-oxo-1^6-(trifluoro-methoxy)-3,7,11-trioxa-5(2,1)-pyrrolidina-1(1,3)-benzena-2(1,4)-cyclohexana-cyclounde-caphane-5^3-yl)methane-sulfonamide]", "Emax": 101},
      {"molecule": "COc1cc2nc(c1)C1CCC(CC1)OCC1[C@@H](NS(=O)(=O)CF)C[C@@H](C)N1C(=O)OCCCO2", "note": "(stereo partly drawn) [Example 107, 1-fluoro-N-((2^1R,2^4R,5^2R, 5^3S,5^5R)-1^4-methoxy-5^5-methyl-6-oxo-3,7,11-trioxa-1(2,6)-pyridina-5(2,1)-pyrrolidina-2(1,4)-cyclohexanacycloundecaphane-5^3-yl)methanesulfonamide]", "Emax": 101},
      {"molecule": "C[C@@H]1C[C@H](NS(=O)(=O)N(C)C)[C@@H]2CO[C@H]3CC[C@H](CC3)c3cccc(c3)CCCCCC(=O)N12", "note": "[Example 12, N′-((2^1S,2^4S,5^2R,5^3S,5^5R)-5^5-methyl-6-oxo-3-oxa-5(2,1)-pyrrolidina-1(1,3)-benzena-2(1,4)cyclohexanacycloundecaphane-5^3-yl)-N,N-dimethyl-sulfamide]", "Emax": 101},
      {"molecule": "C[C@@H]1C[C@H](NS(C)(=O)=O)C2COC3CCC(CC3)c3cccc(n3)NCCCOC(=O)N21", "note": "(stereo partly drawn) [Example 90, N-((2^1S,2^4S,5^2R,5^3S,5^5R)-5^5-methyl-6-oxo-3,7-dioxa-11-aza-1(2,6)-pyridina-5(2,1)-pyrrolidina-2(1,4)-cyclohexanacycloundecaphane-5^3-yl)methanesulfonamide]", "Emax": 101},
      {"molecule": "CN(C)S(=O)(=O)N[C@H]1CCCN2C(=O)OCCCCOc3cccc(c3)C3CCC(CC3)OC[C@@H]12", "note": "[Example 26, N′-((2^1S,2^4S,5^2R,5^3S)-6-oxo-3,7,12-trioxa-5(2,1)-piperidina-1(1,3)-benzena-2(1,4)-cyclohexanacyclododecaphane-5^3-yl)-N,N-dimethy-sulfamide]", "Emax": 94.1},
      {"molecule": "COc1cc2nc(c1)C1CCC(CC1)OCC1[C@@H](NS(C)(=O)=O)C[C@@H](C)N1C(=O)OCCCO2", "note": "(stereo partly drawn) [Example 71, N-((2^1S,2^4S,5^2R,5^3S,5^5R)-1^4-methoxy-5^5-methyl-6-oxo-3,7,11-trioxa-1(2,6)-pyridina-5(2,1)-pyrrolidina-2(1,4)-cyclohexanacycloundecaphane-5^3-yl)methanesulfonamide]", "Emax": 102},
      {"molecule": "CN(C)S(=O)(=O)N[C@@H]1CCCN2C(=O)OCCCCOc3cccc(c3)C3CCC(CC3)OC[C@H]12", "note": "[Example 27, N′-((2^1R,2^4R,5^2S,5^3R)-6-oxo-3,7,12-trioxa-5(2,1)-piperidina-1(1,3)-benzena-2(1,4)-cyclohexanacyclododecaphane-5^3-yl)-N,N-dimethyl-sulfamide]", "Emax": 4.1},
      {"molecule": "C[C@@H]1C[C@H](NS(C)(=O)=O)C2COC3CCC(CC3)c3cc(F)cc(c3F)OCCCOC(=O)N21", "note": "(stereo partly drawn) [Example 48, N-((2^1S,2^4S, 5^2R,5^3S,5^5R)-1^2,1^5-difluoro-5^5-methyl-6-oxo-3,7,11-trioxa-5(2,1)-pyrrolidina-1(1,3)-benzena-2(1,4)-cyclohexana-cyclounde-caphane-5^3-yl)methane-sulfonamide]", "Emax": 101},
      {"molecule": "CCS(=O)(=O)N[C@H]1C[C@@H](C)N2C(=O)OCCCOc3cc(OC)cc(n3)C3CCC(CC3)OCC12", "note": "(stereo partly drawn) [Example 106, N-((2^1R,2^4R,5^2R,5^3S,5^5R)-1^4-methoxy-5^5-methyl-6-oxo-3,7,11-trioxa-1(2,6)-pyridina-5(2,1)-pyrrolidina-2(1,4)-cyclohex-anacycloundecaphane-5^3-yl)ethanesulfonamide]", "Emax": 97.3},
      {"molecule": "Cc1cc2nc(c1)C1CCC(CC1)OCC1[C@@H](NS(C)(=O)=O)C[C@@H](C)N1C(=O)OCCO2", "note": "(stereo partly drawn) [Example 66, N-((2^1S,2^4S,5^2R,5^3S,5^5R)-1^4,5^5-dimethyl-6-oxo-3,7,10-trioxa-1(2,6)-pyridina-5(2,1)-pyrrolidina-2(1,4)-cyclohexanacyclodecaphane-5^3-yl)methanesulfonamide]", "Emax": 95},
      {"molecule": "C[C@@H]1C[C@H](NS(C)(=O)=O)C2COC3CCC(CC3)c3cc(C(F)(F)F)cc(n3)N(C)CCCOC(=O)N21", "note": "(stereo partly drawn) [Example 89, N-((2^1S,2^4S,5^2R,5^3S,5^5R)-5^5,1^1-dimethyl-6-oxo-1^4-(trifluoromethyl)-3,7-dioxa-11-aza-1(2,6)-pyridina-5(2,1)-pyrrolidina-2(1,4)-cyclohexanacycloundecaphane-5^3-yl)methanesulfonamide]", "Emax": 101},
      {"molecule": "C[C@@H]1C[C@H](NS(C)(=O)=O)C2CO[C@H]3CC=C(CC3)c3cccc(c3F)OCCCOC(=O)N21", "note": "(stereo partly drawn) [Example 46, N-((2^1S,2^4S, 5^2R,5^3S,5^5R)-1^2-fluoro-5^5-methyl-6-oxo-3,7,11-trioxa-5(2,1)-pyrrolidina-1(1,3)-benzena-2(1,4)-cyclohexana-cyclounde-caphan-2^1-en-5^3-yl)methane-sulfonamide]", "Emax": 102}
    ]},
    {"target": "T1, human OX2R", "assay": "IPOne (IP-1) orexin receptor agonist assay in CHO cells expressing human OX2R", "conditions": "hOX2R IP-One; percentage of mean max effect of a reference compound at 1 uM with 100% activity", "units": {"Emax (%)": "%"}, "values": [
      {"molecule": "CS(=O)(=O)NC1CCCN2C(=O)CCCOc3cccc(c3)C3CCC(C3)OCC12", "note": "(single isomer, unassigned) [Example 34, N-((2^1S,2^3R,5^2R,5^3S)-6-oxo-3,10-dioxa-5(2,1)-piperidina-1(1,3)-benzena-2(1,3)-cyclopentanacyclodecaphane-5^3-yl)methanesulfonamide]", "Emax (%)": 5.0},
      {"molecule": "N-((2^1S,2^4S,5^2R,5^3S,5^5R)-1^5- fluoro-1^4-methoxy-5^5-methyl- 6-oxo-3,7,10-trioxa-1(2,6)- pyridina-5(2,1)-pyrrolidina- 2(1,4)-cyclohexanacyclode caphane-5^3-yl)methane sulfonamide [Example 74]", "Emax (%)": 110.2},
      {"molecule": "CN(C)S(=O)(=O)NC1CCCN2C(=O)OCCc3ccccc3C3CCC(CC3)OCC12", "note": "(single isomer, unassigned) [Example 38, N′-((2^1S,2^4S,5^2R,5^3S)-6-oxo-3,7-dioxa-5(2,1)-piperidina-1(1,2)-benzena-2(1,4)-cyclohexanacyclononaphane-5^3-yl)-N,N-dimethyl-sulfamide]", "Emax (%)": 100.8}
    ]}
  ]
}
